According to patent US20080009418A1, “Selective Inhibitors” (Alchemia LTD., priority 2004, published 2008):

Key:
[1] = biological target: T1, Human melanin-concentrating hormone (MCH1) (Homo sapiens, UniProt Q99705); assay: Radioligand binding, human melanin-concentrating hormone MCH1 membranes, FlashPlate, [125I]-S36057; conditions: compound at 10 μM; [125I]-S36057
T1 construct: purchased Perkin Elmer Biosignal
Method in brief: (§1)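 Cloned human receptor membranes were coated onto FlashPlate wells and incubated with radioligand and compound (added from a 0.5 mM DMSO daughter plate) for 1 hour at room temperature in the dark. Scintillation counting gave percent inhibition, with DMSO defining total and reference ligand defining non-specific binding.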

Human Melanocortin (MC3) = biological target: T2, Human Melanocortin (MC3) (Homo sapiens, UniProt P41968); assay: Radioligand binding, human melanocortin MC3 membranes, FlashPlate, [125I]-NDP-αMSH; conditions: compound at 10 μM; [125I]-NDP-αMSH
T2 construct: purchased Perkin Elmer Biosignal
Method in brief: as §1

Human κ-Opioid (KOP) = biological target: T3, Human κ-Opioid (KOP) (Homo sapiens, UniProt P41145); assay: Radioligand binding, human κ-opioid (KOP) membranes, filtration, [3H]-Diprenorphine; conditions: compound at 10 μM; [3H]-Diprenorphine
T3 construct: purchased Perkin Elmer Biosignal
Method in brief: (§2)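 Membranes from cloned human receptors were incubated with compound and radioligand for 1 hour at room temperature. Bound ligand was collected on 0.3% PEI-soaked filters, washed with cold 50 mM Tris-HCl pH 7.4, and counted by scintillation. Percent inhibition was computed against DMSO totals and reference-ligand nonspecific wells.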

Mouse urotensin (mUR2) = biological target: T4, Mouse urotensin (mUR2) (Mus musculus, UniProt Q8VIH9); assay: Radioligand binding, mouse urotensin mUR2 membranes, FlashPlate, [125I]-Urotensin II; conditions: compound at 10 μM; [125I]-Urotensin II
T4 construct: purchased Perkin Elmer Biosignal
T4 sequence (Q8VIH9 1-385): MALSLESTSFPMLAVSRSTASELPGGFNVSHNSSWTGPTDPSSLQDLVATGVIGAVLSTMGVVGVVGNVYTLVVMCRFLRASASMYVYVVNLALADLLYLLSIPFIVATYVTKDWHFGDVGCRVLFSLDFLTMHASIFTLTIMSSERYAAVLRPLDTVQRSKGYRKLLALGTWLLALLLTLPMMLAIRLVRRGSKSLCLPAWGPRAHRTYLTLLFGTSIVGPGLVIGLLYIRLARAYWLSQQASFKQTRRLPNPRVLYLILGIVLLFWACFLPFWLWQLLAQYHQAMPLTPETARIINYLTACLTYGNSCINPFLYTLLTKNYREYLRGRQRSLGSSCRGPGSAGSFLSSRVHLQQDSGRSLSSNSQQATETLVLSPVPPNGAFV
Method in brief: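 Cloned mouse urotensin (mUR2) receptor membranes from Perkin Elmer Biosignal were immobilized in FlashPlate microplates using a proprietary coating. Each well got 19.5 μl buffer, then 0.5 μl of DMSO, reference ligand, or compound. Adding 5 μl of [125I]-Urotensin II, diluted to 5× final concentration in binding buffer, started binding. Plates were sealed with TopSeal-A and incubated 1 hour at room temperature in the dark. Wells were counted for 30 seconds each on a TopCount after a 60-second delay, and percentage inhibition was calculated.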

Human Melanocortin (MC4) = biological target: T5, Human Melanocortin (MC4) (Homo sapiens, UniProt P32245); assay: Radioligand binding, human melanocortin MC4 membranes, FlashPlate, [125I]-NDP-αMSH; conditions: compound at 10 μM; [125I]-NDP-αMSH
T5 construct: purchased Perkin Elmer Biosignal
Method in brief: as §1

Human neurokinin (NK1) = biological target: T6, Human neurokinin (NK1) (Homo sapiens, UniProt P25103); assay: Radioligand binding, human neurokinin NK1 membranes, filtration, [125I]-Substance P; conditions: compound at 10 μM; [125I]-Substance P
T6 construct: purchased Perkin Elmer Biosignal
Method in brief: as §2

Human melanocortin (MC5) = biological target: T7, Human melanocortin (MC5) (Homo sapiens, UniProt P33032); assay: Radioligand binding, human melanocortin MC5 membranes, FlashPlate, [125I]-NDP-αMSH; conditions: compound at 10 μM; [125I]-NDP-αMSH
T7 construct: purchased Perkin Elmer Biosignal
Method in brief: as §1

Human opioid (ORL1) = biological target: T8, Human opioid (ORL1) (Homo sapiens, UniProt P41146); assay: Radioligand binding, human opioid ORL1 membranes, FlashPlate, [125I]-Nociceptin; conditions: compound at 10 μM; [125I]-Nociceptin
T8 construct: purchased Perkin Elmer Biosignal
Method in brief: as §1

[2] = biological target: T9, Human neuropeptide Y (NPY-Y1) (Homo sapiens, UniProt P25929); assay: Radioligand binding, human neuropeptide Y NPY-Y1 membranes, FlashPlate, [125I]-PYY; conditions: compound at 10 μM; [125I]-PYY
T9 construct: purchased Perkin Elmer Biosignal
T9 sequence (P25929 1-384): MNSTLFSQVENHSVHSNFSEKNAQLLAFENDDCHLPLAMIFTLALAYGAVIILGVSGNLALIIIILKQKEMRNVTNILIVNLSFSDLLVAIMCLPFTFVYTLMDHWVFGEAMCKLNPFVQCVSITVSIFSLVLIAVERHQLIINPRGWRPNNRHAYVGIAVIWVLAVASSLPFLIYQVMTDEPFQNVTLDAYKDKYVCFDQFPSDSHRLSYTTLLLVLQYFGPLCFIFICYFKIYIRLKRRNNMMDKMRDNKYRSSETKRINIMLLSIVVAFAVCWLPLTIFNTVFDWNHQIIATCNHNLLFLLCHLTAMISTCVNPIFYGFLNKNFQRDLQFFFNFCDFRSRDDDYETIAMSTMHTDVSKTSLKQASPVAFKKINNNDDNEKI
Method in brief: as §1

Human δ-opioid (DOP) = biological target: T10, Human δ-opioid (DOP) (Homo sapiens, UniProt P41143); assay: Radioligand binding, human δ-opioid (DOP) membranes, FlashPlate, [3H]-Bremazocine; conditions: compound at 10 μM; [3H]-Bremazocine
T10 construct: purchased Perkin Elmer Biosignal
Method in brief: as §1

Human μ-opioid (MOP) = biological target: T11, Human μ-opioid (MOP) (Homo sapiens, UniProt P35372); assay: Radioligand binding, human μ-opioid (MOP) membranes, FlashPlate, [3H]-Naloxone; conditions: compound at 10 μM; [3H]-Naloxone
T11 construct: purchased Perkin Elmer Biosignal
Method in brief: as §1

T8 sequence (P41146 whole entry): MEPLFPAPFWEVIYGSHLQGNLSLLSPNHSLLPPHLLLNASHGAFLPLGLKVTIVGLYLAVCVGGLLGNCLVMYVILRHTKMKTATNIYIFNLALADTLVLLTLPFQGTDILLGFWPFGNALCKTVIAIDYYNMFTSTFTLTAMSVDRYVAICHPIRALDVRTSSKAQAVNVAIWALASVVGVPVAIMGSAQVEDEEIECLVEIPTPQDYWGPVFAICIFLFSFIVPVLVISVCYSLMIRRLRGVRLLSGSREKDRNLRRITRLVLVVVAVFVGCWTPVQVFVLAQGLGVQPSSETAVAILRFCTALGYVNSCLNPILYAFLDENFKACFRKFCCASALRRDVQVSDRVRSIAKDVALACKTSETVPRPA
T3 sequence (P41145 whole entry): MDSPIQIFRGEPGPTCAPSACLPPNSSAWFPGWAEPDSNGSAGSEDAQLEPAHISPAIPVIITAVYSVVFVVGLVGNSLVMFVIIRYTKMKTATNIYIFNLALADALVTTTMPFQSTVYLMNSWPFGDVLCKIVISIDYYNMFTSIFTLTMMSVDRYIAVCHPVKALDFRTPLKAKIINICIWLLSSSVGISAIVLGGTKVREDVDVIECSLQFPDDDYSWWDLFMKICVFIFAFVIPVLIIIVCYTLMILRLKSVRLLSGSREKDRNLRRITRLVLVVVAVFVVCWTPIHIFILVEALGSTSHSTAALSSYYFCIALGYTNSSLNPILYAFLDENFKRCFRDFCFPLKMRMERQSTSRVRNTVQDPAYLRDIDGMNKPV
T10 sequence (P41143 whole entry): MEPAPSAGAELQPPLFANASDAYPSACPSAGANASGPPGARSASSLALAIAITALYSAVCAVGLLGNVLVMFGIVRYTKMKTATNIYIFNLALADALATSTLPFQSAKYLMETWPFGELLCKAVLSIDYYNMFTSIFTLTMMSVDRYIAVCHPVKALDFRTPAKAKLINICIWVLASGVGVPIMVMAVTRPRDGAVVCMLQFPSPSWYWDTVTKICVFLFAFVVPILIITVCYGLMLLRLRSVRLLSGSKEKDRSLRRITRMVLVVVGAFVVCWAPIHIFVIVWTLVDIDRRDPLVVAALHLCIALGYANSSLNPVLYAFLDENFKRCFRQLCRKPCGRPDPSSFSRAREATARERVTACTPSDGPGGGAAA
T6 sequence (P25103 whole entry): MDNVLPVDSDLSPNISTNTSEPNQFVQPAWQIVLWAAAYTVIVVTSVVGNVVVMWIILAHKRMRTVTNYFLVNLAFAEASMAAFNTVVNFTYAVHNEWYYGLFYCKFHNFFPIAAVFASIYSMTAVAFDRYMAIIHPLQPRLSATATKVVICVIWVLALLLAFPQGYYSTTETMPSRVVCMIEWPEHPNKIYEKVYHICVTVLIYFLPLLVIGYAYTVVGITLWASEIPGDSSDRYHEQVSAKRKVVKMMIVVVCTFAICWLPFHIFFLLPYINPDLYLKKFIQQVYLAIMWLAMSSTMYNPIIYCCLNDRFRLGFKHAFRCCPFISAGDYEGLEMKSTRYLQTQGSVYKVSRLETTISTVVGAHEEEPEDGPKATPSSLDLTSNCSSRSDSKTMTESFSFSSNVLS
T7 sequence (P33032 whole entry): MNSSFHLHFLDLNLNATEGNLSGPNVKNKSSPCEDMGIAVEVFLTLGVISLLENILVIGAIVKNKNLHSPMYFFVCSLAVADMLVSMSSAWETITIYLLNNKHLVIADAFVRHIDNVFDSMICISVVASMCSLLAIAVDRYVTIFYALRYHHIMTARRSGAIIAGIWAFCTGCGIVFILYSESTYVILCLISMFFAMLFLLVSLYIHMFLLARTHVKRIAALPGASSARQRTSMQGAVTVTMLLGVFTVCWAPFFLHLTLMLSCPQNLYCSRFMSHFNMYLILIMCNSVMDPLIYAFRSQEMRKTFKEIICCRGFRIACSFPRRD
T5 sequence (P32245 whole entry): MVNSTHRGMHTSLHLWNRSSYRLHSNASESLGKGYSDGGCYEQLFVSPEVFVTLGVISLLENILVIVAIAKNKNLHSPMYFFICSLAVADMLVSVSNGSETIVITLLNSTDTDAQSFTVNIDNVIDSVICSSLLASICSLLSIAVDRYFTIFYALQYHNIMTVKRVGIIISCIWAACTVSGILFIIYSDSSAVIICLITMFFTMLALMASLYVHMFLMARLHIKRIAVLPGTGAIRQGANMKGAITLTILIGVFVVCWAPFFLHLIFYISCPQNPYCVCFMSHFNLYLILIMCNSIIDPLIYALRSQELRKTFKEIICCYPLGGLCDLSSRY
T11 sequence (P35372 whole entry): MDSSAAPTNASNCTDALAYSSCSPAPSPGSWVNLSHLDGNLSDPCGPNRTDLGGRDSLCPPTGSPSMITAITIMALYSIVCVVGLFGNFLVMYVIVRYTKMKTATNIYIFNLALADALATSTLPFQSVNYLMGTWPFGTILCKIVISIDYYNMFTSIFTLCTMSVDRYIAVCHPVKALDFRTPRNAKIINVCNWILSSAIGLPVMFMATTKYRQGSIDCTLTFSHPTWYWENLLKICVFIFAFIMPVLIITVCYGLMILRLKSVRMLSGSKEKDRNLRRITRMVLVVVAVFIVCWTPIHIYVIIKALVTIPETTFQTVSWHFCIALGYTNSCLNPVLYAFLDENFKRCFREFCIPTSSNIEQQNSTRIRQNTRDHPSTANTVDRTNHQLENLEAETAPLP
T2 sequence (P41968 whole entry): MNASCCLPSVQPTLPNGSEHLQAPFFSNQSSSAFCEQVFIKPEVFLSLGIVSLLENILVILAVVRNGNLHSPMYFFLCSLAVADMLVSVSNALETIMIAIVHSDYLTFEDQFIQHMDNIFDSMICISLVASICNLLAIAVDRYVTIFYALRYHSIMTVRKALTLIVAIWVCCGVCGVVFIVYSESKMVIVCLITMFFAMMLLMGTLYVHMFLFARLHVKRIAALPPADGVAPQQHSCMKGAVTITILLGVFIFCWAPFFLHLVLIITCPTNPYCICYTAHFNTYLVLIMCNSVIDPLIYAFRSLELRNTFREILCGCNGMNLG
T1 sequence (Q99705 whole entry): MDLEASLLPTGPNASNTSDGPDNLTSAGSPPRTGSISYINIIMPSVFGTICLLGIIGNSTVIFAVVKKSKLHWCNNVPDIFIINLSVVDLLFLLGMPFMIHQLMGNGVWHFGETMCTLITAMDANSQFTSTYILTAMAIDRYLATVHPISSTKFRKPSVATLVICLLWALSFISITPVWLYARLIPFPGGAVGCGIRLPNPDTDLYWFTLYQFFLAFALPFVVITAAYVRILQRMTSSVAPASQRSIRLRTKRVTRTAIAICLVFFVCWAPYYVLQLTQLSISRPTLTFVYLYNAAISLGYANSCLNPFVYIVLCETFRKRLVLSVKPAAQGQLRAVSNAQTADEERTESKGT

SMILES	A6 radioligand binding, percentage inhibition [1]	A3 radioligand binding, percentage inhibition (Human Melanocortin (MC3))	A2 radioligand binding, percentage inhibition (Human κ-Opioid (KOP))	A11 radioligand binding, percentage inhibition (Mouse urotensin (mUR2))	A4 radioligand binding, percentage inhibition (Human Melanocortin (MC4))	A8 radioligand binding, percentage inhibition (Human neurokinin (NK1))	A5 radioligand binding, percentage inhibition (Human melanocortin (MC5))	A10 radioligand binding, percentage inhibition (Human opioid (ORL1))	A9 radioligand binding, percentage inhibition [2]	A1 radioligand binding, percentage inhibition (Human δ-opioid (DOP))	A7 radioligand binding, percentage inhibition (Human μ-opioid (MOP))
CO[C@H]1[C@H](O)[C@@H](COCc2ccc(Cl)cc2)OC(OCc2ccccc2)[C@@H]1NC(=O)CCCN (stereo partly shown) [compound 92]	− (“−” indicates less than 50% inhibition at 10 μM)	− (“−” indicates less than 50% inhibition at 10 μM)	− (“−” indicates less than 50% inhibition at 10 μM)	− (“−” indicates less than 50% inhibition at 10 μM)	− (“−” indicates less than 50% inhibition at 10 μM)	+ (“+” indicates greater than 50% inhibition at 10 μM)	− (“−” indicates less than 50% inhibition at 10 μM)	− (“−” indicates less than 50% inhibition at 10 μM)	− (“−” indicates less than 50% inhibition at 10 μM)	− (“−” indicates less than 50% inhibition at 10 μM)	− (“−” indicates less than 50% inhibition at 10 μM)
CO[C@H]1[C@H](O)[C@@H](COCc2ccc(Cl)cc2)OC(OCc2ccccc2)[C@@H]1NC(=O)CCCNC(=N)N (stereo partly shown) [compound 93]	− (“−” indicates less than 50% inhibition at 10 μM)	− (“−” indicates less than 50% inhibition at 10 μM)	− (“−” indicates less than 50% inhibition at 10 μM)	− (“−” indicates less than 50% inhibition at 10 μM)	− (“−” indicates less than 50% inhibition at 10 μM)	+ (“+” indicates greater than 50% inhibition at 10 μM)	+ (“+” indicates greater than 50% inhibition at 10 μM)	− (“−” indicates less than 50% inhibition at 10 μM)	− (“−” indicates less than 50% inhibition at 10 μM)	− (“−” indicates less than 50% inhibition at 10 μM)	+ (“+” indicates greater than 50% inhibition at 10 μM)
CO[C@H]1[C@H](O)[C@@H](COCc2ccc(-c3ccccc3)cc2)OC(OCc2ccc(Cl)cc2)[C@@H]1NC(=O)CCNC(=N)N (stereo partly shown) [compound 94]	+ (“+” indicates greater than 50% inhibition at 10 μM)	+ (“+” indicates greater than 50% inhibition at 10 μM)	− (“−” indicates less than 50% inhibition at 10 μM)	− (“−” indicates less than 50% inhibition at 10 μM)	+ (“+” indicates greater than 50% inhibition at 10 μM)	+ (“+” indicates greater than 50% inhibition at 10 μM)	+ (“+” indicates greater than 50% inhibition at 10 μM)	+ (“+” indicates greater than 50% inhibition at 10 μM)	+ (“+” indicates greater than 50% inhibition at 10 μM)	− (“−” indicates less than 50% inhibition at 10 μM)	− (“−” indicates less than 50% inhibition at 10 μM)
CO[C@H]1[C@H](O)[C@@H](COCc2ccc(-c3ccccc3)cc2)OC(OCc2ccc(Cl)cc2)[C@@H]1NC(=O)CCCN (stereo partly shown) [compound 95]	+ (“+” indicates greater than 50% inhibition at 10 μM)	− (“−” indicates less than 50% inhibition at 10 μM)	− (“−” indicates less than 50% inhibition at 10 μM)	− (“−” indicates less than 50% inhibition at 10 μM)	+ (“+” indicates greater than 50% inhibition at 10 μM)	+ (“+” indicates greater than 50% inhibition at 10 μM)	+ (“+” indicates greater than 50% inhibition at 10 μM)	+ (“+” indicates greater than 50% inhibition at 10 μM)	− (“−” indicates less than 50% inhibition at 10 μM)	− (“−” indicates less than 50% inhibition at 10 μM)	− (“−” indicates less than 50% inhibition at 10 μM)
CO[C@H]1[C@H](O)[C@@H](COCc2ccc(-c3ccccc3)cc2)OC(OCc2ccc(Cl)cc2)[C@@H]1NC(=O)CCCNC(=N)N (stereo partly shown) [compound 96]	+ (“+” indicates greater than 50% inhibition at 10 μM)	+ (“+” indicates greater than 50% inhibition at 10 μM)	+ (“+” indicates greater than 50% inhibition at 10 μM)	− (“−” indicates less than 50% inhibition at 10 μM)	+ (“+” indicates greater than 50% inhibition at 10 μM)	+ (“+” indicates greater than 50% inhibition at 10 μM)	+ (“+” indicates greater than 50% inhibition at 10 μM)	+ (“+” indicates greater than 50% inhibition at 10 μM)	+ (“+” indicates greater than 50% inhibition at 10 μM)	− (“−” indicates less than 50% inhibition at 10 μM)	− (“−” indicates less than 50% inhibition at 10 μM)
